According to PMC5937873, “Improving the biopharmaceutical attributes of mangiferin using vitamin E-TPGS co-loaded self-assembled phosholipidic nano-mixed micellar systems” (Drug Delivery and Translational Research, 2018):
In brackets after ≈: the same amount, converted by molar mass. Read-outs that look alike come from different tables or passages of the source. Blank lines part the entries; values can stand above or below the molecule they belong to.

What was measured:
[1] = excised rat small intestine, 2 h
[2] = Equilibrium solubility studies in emulgents and cosolvents; format: physicochemical; conditions: 37 ± 1 °C
Protocol: Solubility studies for Mgf were carried out for 72 h at 37 ± 1 °C in a water bath by adding an excess amount of drug in various water-soluble emulgents, viz. Acconon CC-6, Cremophor RH40, Cremophor EL, Vitamin E TPGS, Labrafil […], Labrasol, Tween 80 and Tween 40. Cosolvents employed included Transcutol HP, PEG 200, and propylene glycol. Aliquots of the filtrate were suitably diluted with methanol and analyzed using the HPTLC method previously reported by the authors at a λmax of 262 nm.

[3] = In vivo pharmacokinetic studies; conditions: rat, oral, Mgf equivalent to 30 mg/kg
Protocol: In vivo pharmacokinetic studies were conducted by sparse sampling designed experiment. The formulations were administered through oral gavage on two groups of rats (n = 60). Within each group, five subgroups were designated (5 × 6 = 30 animals were employed in one group) and from one animal maximum two blood samples were withdrawn during the entire study alternating between left and right eyes. Group I was administered plain Mgf solution and Group II was given Mgf-SPNMS containing Mgf equivalent to 30mg/Kg. The animals were anesthetized employing isoflurane, and the blood (200 μL) was withdrawn from the retro-orbital plexus of rats at 0.5, 1, 2, 3, 6, 12, 18, 24, and 36 h, in heparin-coated micro-centrifuge tubes.
Further, plasma was harvested by centrifugation at 10,000 rpm (559 g) for 5 min and analyzed for Mgf using the previously reported and validated HPTLC method. The data were analyzed by non-compartmental and compartmental pharmacokinetic modeling approaches using the WinNonlin software, version 5.0 ([…]). Statistical tests like one-way/two-way ANOVA followed by post hoc multiple comparison tests, and Student’s independent t test has been applied wherever applicable.

[4] = Biopharmaceutics classification (BCS); conditions: by virtue of low aqueous solubility and lipophilicity
[5] = test system: vital organs; assay: Histopathology of vital organs (in vivo toxicity); conditions: SD female rats, 30 mg/kg Mgf oral gavage, three times per week for 4 weeks
[6] = test system: whole blood; assay: Hematological studies (whole blood count, RBC morphology); conditions: SD female rats, 30 mg/kg Mgf oral gavage, three times per week for 4 weeks
[7] = molecular target: T1, MDR1 transporters (Homo sapiens, UniProt P08183); assay: P-gp efflux assay with Rh-123 dye (multi-drug resistance dye efflux kit); format: cell-based; conditions: MCF-7 and MDA-MB-231 cells, 37 °C
T1 construct: Overexpression of P-gp in MCF-7 and MDA-MB-231 cells is well-documented in literature; endogenous in cells; host or cells: MCF-7 and MDA-MB-231 cells
T1 sequence (P08183 whole entry): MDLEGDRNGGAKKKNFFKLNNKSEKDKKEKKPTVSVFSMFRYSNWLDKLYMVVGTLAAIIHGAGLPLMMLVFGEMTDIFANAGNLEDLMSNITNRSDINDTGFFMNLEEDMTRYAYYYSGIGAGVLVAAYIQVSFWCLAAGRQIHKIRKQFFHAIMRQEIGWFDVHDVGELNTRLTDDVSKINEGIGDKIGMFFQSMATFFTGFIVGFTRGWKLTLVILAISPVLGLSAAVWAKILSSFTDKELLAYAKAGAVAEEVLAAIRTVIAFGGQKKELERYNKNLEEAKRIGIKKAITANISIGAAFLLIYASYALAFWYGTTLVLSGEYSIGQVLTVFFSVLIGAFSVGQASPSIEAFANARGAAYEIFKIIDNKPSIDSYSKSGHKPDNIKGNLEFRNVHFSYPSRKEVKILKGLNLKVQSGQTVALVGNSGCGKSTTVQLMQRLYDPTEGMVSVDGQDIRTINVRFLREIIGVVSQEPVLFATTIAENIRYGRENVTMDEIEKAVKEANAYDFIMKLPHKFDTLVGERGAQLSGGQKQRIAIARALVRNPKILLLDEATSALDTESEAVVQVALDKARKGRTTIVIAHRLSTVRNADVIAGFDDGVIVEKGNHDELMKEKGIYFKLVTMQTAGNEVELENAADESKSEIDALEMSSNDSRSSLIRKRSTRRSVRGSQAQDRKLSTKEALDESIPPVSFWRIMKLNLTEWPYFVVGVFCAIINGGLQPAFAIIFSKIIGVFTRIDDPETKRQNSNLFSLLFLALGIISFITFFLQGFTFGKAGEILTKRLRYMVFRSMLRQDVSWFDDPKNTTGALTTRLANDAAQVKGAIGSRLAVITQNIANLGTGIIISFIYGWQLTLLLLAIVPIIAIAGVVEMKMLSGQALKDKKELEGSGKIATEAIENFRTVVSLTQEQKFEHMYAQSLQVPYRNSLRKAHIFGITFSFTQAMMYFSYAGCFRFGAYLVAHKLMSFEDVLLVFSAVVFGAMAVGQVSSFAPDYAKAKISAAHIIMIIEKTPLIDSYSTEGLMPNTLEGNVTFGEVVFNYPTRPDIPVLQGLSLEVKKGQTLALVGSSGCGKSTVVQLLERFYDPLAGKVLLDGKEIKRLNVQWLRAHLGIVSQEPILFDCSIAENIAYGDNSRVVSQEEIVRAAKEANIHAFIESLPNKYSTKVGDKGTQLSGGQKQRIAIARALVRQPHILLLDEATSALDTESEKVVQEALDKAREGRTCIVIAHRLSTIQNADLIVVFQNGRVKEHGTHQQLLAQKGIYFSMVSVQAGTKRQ
Protocol: (§1) Overexpression of P-gp in MCF-7 and MDA-MB-231 cells is well-documented in literature. […] For evaluating the P-gp efflux, the multi-drug resistance dye efflux assay kit (Chemicon International, USA) was employed in which the MCF-7 and MDA-MB-231 cells (2.5 × 10^5) were treated with Rh-123 and DiOC2 dyes, with or without vinblastine. To assess the inhibitory activity of SPNMS on MDR1 transporters, these were incubated with Rh-123 alone, Rh-123 with SPNMS, and Rh-123 with vinblastine at 37 °C, along with Rh-123 at 4 °C. Likewise, to estimate the potential of the developed SPNMS formulation for blocking the activity of BCRP transporters, DiOC2 dye was employed. On similar heels, MCF-7 and MDA-MB-231 cells (2.5 × 10^5) were incubated with DiOC2 alone, DiOC2 with SPNMS, and DiOC2 with vinblastine at 37 °C, along with DiOC2 at 4 °C. The fluorescence intensity was measured in a TECAN fluorescence microplate reader at an excitation wavelength of 485 nm and an emission wavelength of 530 nm.

[8] = molecular target: T2, BCRP transporters (Homo sapiens, UniProt Q9UNQ0); assay: P-gp efflux assay with DiOC2 dye (multi-drug resistance dye efflux kit); format: cell-based; conditions: MCF-7 and MDA-MB-231 cells, 37 °C
T2 construct: endogenous in cells; host or cells: MCF-7 and MDA-MB-231 cells
T2 sequence (Q9UNQ0 1-655): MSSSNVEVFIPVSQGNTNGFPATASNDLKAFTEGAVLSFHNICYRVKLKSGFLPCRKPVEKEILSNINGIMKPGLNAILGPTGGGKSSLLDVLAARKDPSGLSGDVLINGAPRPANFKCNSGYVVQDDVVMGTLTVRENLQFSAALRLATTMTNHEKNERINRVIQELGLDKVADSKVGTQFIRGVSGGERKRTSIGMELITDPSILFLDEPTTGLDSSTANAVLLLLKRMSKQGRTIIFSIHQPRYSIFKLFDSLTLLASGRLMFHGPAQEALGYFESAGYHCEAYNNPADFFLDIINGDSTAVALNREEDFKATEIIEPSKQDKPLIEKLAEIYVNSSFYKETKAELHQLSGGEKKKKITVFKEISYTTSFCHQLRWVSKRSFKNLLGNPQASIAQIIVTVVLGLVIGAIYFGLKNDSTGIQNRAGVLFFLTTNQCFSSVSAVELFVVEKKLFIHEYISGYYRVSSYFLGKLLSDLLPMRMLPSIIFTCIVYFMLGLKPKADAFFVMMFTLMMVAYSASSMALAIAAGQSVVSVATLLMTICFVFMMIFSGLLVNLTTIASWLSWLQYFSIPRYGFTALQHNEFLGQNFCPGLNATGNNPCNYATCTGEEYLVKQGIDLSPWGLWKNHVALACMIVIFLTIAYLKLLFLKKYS
Protocol: as §1

intestinal permeation (CLSM) [1]: does not permeate through the intestine
Structure (SMILES): COC(=O)c1ccccc1-c1c2ccc(=N)cc-2oc2cc(N)ccc12 [Rh-123, Rhodamine 123]

solubility thermodynamic at 72 h ([2]; PEG 200 (cosolvent), highest among cosolvents, read-out: equilibrium solubility in PEG 200): 10.2 mg/mL (≈ 24.2 mM)
solubility thermodynamic at 72 h ([2]; vitamin E TPGS (water-soluble emulgent), maximum among surfactants, read-out: equilibrium solubility in vitamin E TPGS): 17.6 mg/mL (≈ 41.8 mM)
Cmax ([3]; plasma): 297 ± 56.4 ng/mL
MRT ([3]; plasma): 8.16 ± 1.73 h
Tmax ([3]; plasma): 3.08 ± 0.18 h
Cl [3]: 2543.44 ± 453.42 mL/h
Ka [3]: 0.32 ± 0.09 h⁻¹
BCS class [4]: BCS class IV
HCT [6]: 43.9%
HGB [6]: 14.54 g/dL
PLT count [6]: AG* 589 × 10^3/μL
RBC count [6]: 8.21e+06 µL⁻¹
WBC count [6]: 16400 µL⁻¹
Structure (SMILES): O=c1c2cc(O)c(O)cc2oc2cc(O)c([C@@H]3O[C@H](CO)[C@@H](O)[C@H](O)[C@H]3O)c(O)c12 [Mgf, mangiferin]
histopathological change(s) in vital organs [5]: no histopathological change(s)

Structure (SMILES): CC[C@]1(O)C[C@@H]2CN(CCc3c([nH]c4ccccc34)[C@@](C(=O)OC)(c3cc4c(cc3OC)N(C)[C@H]3[C@@](O)(C(=O)OC)[C@H](OC(C)=O)[C@]5(CC)C=CCN6CC[C@]43[C@@H]65)C2)C1 [vinblastine]
inhibition of Rh-123 efflux (fluorescence intensity) [7]: higher fluorescence intensity without any efflux
inhibition of DiOC2 efflux (fluorescence intensity) [8]: higher fluorescence intensity without any efflux
